Test [1] concerns hTERC rG4 MUT construct in HeLa cells. As to the kind of experiment: Dual-luciferase reporter gene assay, hTERC rG4 MUT construct. The following applies: peptide 0, 100, 200 nM, 48 hours. In kind it is cell-based, human. On the procedure: (§1) Wild-type or mutant hTERC rG4 construct was inserted into the HSV-TK promoter at the SacII restriction enzyme site of firefly/renilla dual luciferase reporter vector, psiCHECK-2. Then, wild-type or mutant reporter plasmid was transfected into Hela cells together with peptides (0, 100, 200 nM) using nucleofector. Each well of the 96-well black-wall optical plate was transfected with 30 ng plasmids. The luciferase reporter gene assays were performed after 48 hours of incubation using the dual-luciferase reporter assay kit. The microplate reader was used to measure luciferase activities with renilla luciferase serving as an internal control. The ratio of firefly to renilla was calculated to analyze the data. Three replicates were performed for each measurement, and the error bar was plotted based on the standard deviation. The P-value was calculated using two-tailed unpaired Student's t-tests to evaluate the significance of the samples.
After confirming that the rG4-targeting peptides can interact with rG4 structures in live cells, their effect on modulating rG4-mediated gene expression was examined in the example. […]
Background: In a reporter assay the amount or activity of a reporter protein is the signal.

For test [2], the system named is hTERC rG4 WT construct in HeLa cells. As to the kind of experiment: Dual-luciferase reporter gene assay, hTERC rG4 WT construct. In kind it is cell-based, human. The following applies: peptide 0, 100, 200 nM, 48 hours. On the procedure: as §1
After confirming that the rG4-targeting peptides can interact with rG4 structures in live cells, their effect on modulating rG4-mediated gene expression was examined in the example. Dual luciferase reporter gene assay was conducted in HeLa cells, in which hTERC rG4 WT motif (SEQ ID NO: 12) or hTERC rG4 MUT motif (SEQ ID NO: 13) was inserted in the 5′ untranslated region (5′ UTR) of the renilla luciferase gene region separately, and the firefly luciferase gene was used as a normalized gene (FIG. 1).

Test [3] deals with hTERC rG4. As to the kind of experiment: Ligand-enhanced fluorescence assay. Also noted: species or system human. To be noted: 100 nM hTERC rG4. On the procedure:
HTERC rG4 (100 nM) in Tris-HCl buffer (25 mM Tris-HCl, pH 7.5, 150 mM KCl, and 1 mM MgCl2) was heated at 95° C. for 3 minutes and cooled down at 25° C. for 10 minutes. 10 μL of the peptide and rG4 mixture were incubated for 30 minutes at room temperature. Fluorescence spectroscopy was performed using a microplate reader in 384 well plate. The samples were excited at 394 nm and the emission spectra were detected at 610 nm. The plot was carried out by software.

For test [4], the target named is hTERC rG4. The test is described as follows: Microscale thermophoresis (MST) binding assay. Also noted: species or system human. To be noted: 50 nM FAM-labelled RNA, 150 mM KCl. On the procedure:
(§2) The RNA was subjected to heat treatment at 75° C. for 5 minutes followed by cooling down to room temperature for 10 minutes for renaturation purposes. For binding affinity and selectivity test, reaction mixtures containing 50 nM FAM-labelled RNA, 150 mM KCl, 1 mM MgCl2, 25 mM Tris-HCl (pH 7.5) and varying concentrations of peptide were prepared and incubated at 37° C. for 30 minutes. The samples were then loaded into MST capillary tubes, and the measurements were taken at 25° C. using blue light mode and the binding affinity mode. The data obtained from these measurements were analyzed using MST nano temper analysis (nta) analysis software. The curve fitting and dissociation constant (Kd) determination were carried out by software using the one site-specific binding model.
(In MST a laser heats a spot of the sample, and binding alters the fluorescence response.)

The test system of test [5] is rG4s, dG4s (c-MYC, c-kit1, HRAS-1, hTelo) and non-G4 targets (scramble G-rich sequence, DNA hairpin, RNA hairpin). The test is described as follows: MST binding selectivity test with different rG4s, dG4s and non-G4 targets. The following applies: data not shown. Here is the method:
as §2

Test [6] deals with 5' FAM, 3' TAMRA labelled hTERC rG4. As to the kind of experiment: FRET melting assay. The format is binding, human. To be noted: increasing peptide concentration, 0-2 μM; 0.2 μM rG4. Here is the method:
FRET-melting assay was performed with 5′ FAM, 3′ TAMRA labelled hTERC rG4. The oligonucleotides were prepared at 0.2 μM, and the peptides were prepared at 0, 0.2, 0.4, 1 or 2 μM final concentration. The samples were excited at 492 nm and the emission spectra were detected at 516 nm in a buffer containing 10 mM lithium cacodylate and 1 mM KCl. The rG4 was heated at 95° C. for 5 minutes and cooled down in room temperature to refold for 10 minutes before adding the peptides. The signal was monitored by real-time PCR detection system with a procedure of 30 minutes at 25° C., then an increase of 0.5° C. every minute until 95° C. Each experimental condition was tested in three duplicates in a volume of 25 μL for each sample. The data were blanked, averaged and smoothed over 2° C. The plot was carried out by software.

Test [7] relates to hTERC rG4 MUT in HeLa cells. The test is described as follows: Cell imaging, co-transfection with hTERC rG4 MUT. In kind it is cell-based, human. To be noted: 5 hours post-transfection, data not shown. Here is the method: (§3) HeLa cells were seeded on a 3.5 cm confocal dish 1 day before transfection. FAM-labelled hTERC rG4 was heated to 75° C. for 5 minutes, annealed at 25° C., and then co-transfected with TAMRA-labelled peptide using LIPOFECTAMINE® 2000. Five hours post-transfection, the cells were stained with 50 nM deep red-fluorescent dye (labeling and tracking acidic organelles in live cells) for 30 minutes and 5 μg/mL Hoechst dye (staining nucleic acid) for 15 minutes. The images were monitored using a laser confocal scanning microscope. Fluorescence statistics of cells were analyzed using software.

In a further test the test system is hTERC rG4 mutant (MUT). As to the kind of experiment: Filter binding assay, hTERC rG4 mutant. Set-up: species or system human. To be noted: data not shown. Here is the method:
(§4) In the binding affinity and selectivity tests, reaction mixtures containing 5 nM biotin-labeled RNA, 25 mM Tris-HCl (pH 7.5), 150 mM KCl, 1 mM MgCl2 and varying concentrations of peptides were prepared in 50 μL and incubated at 37° C. for 30 minutes before loaded onto an apparatus containing a nitrocellulose membrane (top) and nylon membrane (bottom). The nylon membrane was rinsed with 0.5× Tris-borate-EDTA (TBE) buffer for 5 minutes, and the nitrocellulose membrane was rinsed with 0.5 M KOH for 15 minutes at 4° C. and then rinsed with 0.5×TBE buffer for one time prior to use. The membranes were washed with binding buffer for three times before and after applying the sample to the apparatus. The crosslinking step was carried out by exposing the membranes to UV irradiation at 254 nm, 120,000 microjoules/cm^2 for 5 minutes. The results were detected using a chemiluminescent nucleic acid detection module kit, and the scanned by an imaging system.

Test [8] deals with hTERC rG4 WT in HeLa cells. As to the kind of experiment: Cell imaging, co-transfection with hTERC rG4 WT. To be noted: 5 hours post-transfection, data not shown. In kind it is cell-based, human. Here is the method:
as §3

Another test has as its system hTERC rG4 wild-type (WT). The test is described as follows: Filter binding assay, hTERC rG4 wild-type. To be noted: data not shown. Also noted: species or system human. On the procedure: as §4

Like-named read-outs stand apart in the source and are kept apart here.

As to “pep71: negative control peptide with amino acid sequence AHPLTKPPKYHH (SEQ ID NO: 5) [reference compound]”, the “normalized luciferase activity, MUT construct” value in [1] was “did not impact”. In addition, the “normalized luciferase activity, WT construct” value in test [2] is recorded as “did not impact”.
As for “RHAU53: positive control peptide reported to interact with rG4s; sequence SMHPGHLKGREIGMWYAKKQGQKNKEAERQERAVVHMDERREEQIVQLLNSVQA K (SEQ ID NO: 4) (SMHPGHLKGREIGMWYAKKQGQKNKEAERQERAVVHMDERREEQIVQLLNSVQAK)”, in [2], the “normalized luciferase activity, WT construct” value is “effects of both tandem and cyclic pep11 were comparable to that of RHAU53”. Further, in the test with hTERC rG4 [3], the “fluorescence signal / conformational change of G4 upon peptide binding” value is “exhibited a similar result”.
For orientation: Kd means the concentration at which binding is half-saturated. For the substance “de novo G4-binding peptide with amino acid sequence TKRKHPHRRKYR (SEQ ID NO: 1) [pep11]”, at hTERC rG4 [4] (read-out: Kd, binding to hTERC rG4), the Kd was found to be 1370 ± 220 nM. Further, the “binding selectivity among rG4s, dG4s and non-G4s” value in [5] was “only rG4s exhibited observable binding”. Besides, in [6], the “melting temperature of hTERC rG4” value is given as “Higher melting temperatures”.
“two pep11 domains linked by (GTGSGA)3: TKRKHPHRRKYRGTGSGAGTGSGAGTGSGATKRKHPHRRKYR (SEQ ID NO: 3) [tandem pep11]”: in test [7], the “foci in cells transfected with hTERC rG4 MUT” value is “few foci were observed”. The Kd on hTERC rG4 [4] (read-out: Kd, binding affinity to hTERC rG4) was found to be 449 ± 62 nM. In addition, the “binding to hTERC rG4 MUT” value in the test on hTERC rG4 mutant (MUT) is recorded as “not MUT”. Moreover, in test [5], the “binding selectivity among rG4s, dG4s and non-G4s” value was “bound to other rG4s but not to non-G4s and weakly to dG4s”. Moreover, the “normalized luciferase activity, WT construct” value in test [2] is given as “the inhibition extended with increasing concentration”. Besides, the “colocalization of TAMRA-labelled peptide with hTERC rG4 WT foci in live cells” value in [8] is on record as “clear colocalization of TAMRA signals with the fluorescent foci”. Also, the “melting temperature of hTERC rG4” value in test [6] is given as “Higher melting temperatures”. The “binding to hTERC rG4 WT” value with hTERC rG4 wild-type (WT) is “bound to hTERC rG4 WT”.

Source of the values: patent publication US20240255515A1, “G4-SPECIFIC PEPTIDES AND METHODS OF IDENTIFYING THE SAME” (CITY UNIVERSITY OF HONG KONG, priority 2023, published 2024).
